Article PMC5574958, “Radiosynthesis and Preclinical Evaluation of [^18F]F-DPA, A Novel Pyrazolo[1,5a]pyrimidine Acetamide TSPO Radioligand, in Healthy Sprague Dawley Rats” (Molecular Imaging and Biology, 2017)
pKi: −log10 of the molar value.

Tests used:
CBR = settings: read-out: K i CBR (selectivity); cited from earlier work
Ex vivo biodistribution = format: in vivo, Sprague Dawley rats; settings: for Uptake of fluorine-18-radioactivity, Harderian gland / Uptake of fluorine-18-radioactivity, Brain / Uptake of fluorine-18-radioactivity, Brown fat / Uptake of fluorine-18-radioactivity, Eye x2 / Uptake of fluorine-18-radioactivity, Injection site (tail) / Uptake of fluorine-18-radioactivity, Large int. Wall + contents / Uptake of fluorine-18-radioactivity, Liver / Uptake of fluorine-18-radioactivity, Lung / Uptake of fluorine-18-radioactivity, Muscle / Uptake of fluorine-18-radioactivity, Salivary x2 / Uptake of fluorine-18-radioactivity, Small int. wall + contents / Uptake of fluorine-18-radioactivity, Stomach wall + contents / Uptake of fluorine-18-radioactivity, Testis: mean, n = 3
Description: After sacrifice (5, 15, 30, 60, and 90 min after injection, n = 3, for every time point and radiotracer), the blood was collected into Li-heparin tubes and transcardial perfusion with saline was conducted rapidly in order to eliminate the blood from the whole body. Following this, the organs of the animals were collected, individually weighed, and the radioactivity was measured using a gamma counter (Wizard^2 3 × 3″, PerkinElmer, Turku, Finland). The decay-corrected radioactivity is reported as percentage of injected dose per gram (%ID/g).

TSPO = settings: read-out: K i (TSPO affinity); cited from earlier work
[1] = RadioTLC analyses of radiometabolites in plasma and brain homogenates; format: in vivo, Sprague Dawley rats; settings: for Unchanged radiotracer, share of radioactivity in the brain: brain homogenate
Description: The blood samples were taken into Li-heparin tubes and centrifuged (3000×g, 10 min). The plasma was transferred to an Eppendorf tube and the plasma proteins were precipitated by addition of 1.5 parts of MeOH by volume. Following a further centrifugation (12,000×g, 4 min), 20 μl of the supernatant was spotted onto an aluminum-backed silica gel 60/Kieselguhr F254 TLC plate (EMD Millipore 1.05567.0001, Merck Millipore, Darmstadt, Germany).
Brain samples from the cortex were homogenized with approximately 200 μl of 1:1 v/v of MeOH and water; the mixture was transferred to an Eppendorf tube and centrifuged (12,000×g, 4 min). An aliquot (20 μl) of the supernatant was spotted onto the TLC plate.
The TLC plates were developed with a mixture of dichloromethane and methanol (9:1, v/v) for a distance of 6 cm. Following this, the plates were exposed onto an imaging plate (Fuji BAS Imaging Plate TR2025, Fuji Photo Film Co., Ltd., Tokyo, Japan) for approximately two half-lives of fluorine-18 (3.5 to 4 h). After the exposure, the imaging plates were scanned using a BAS-5000 reader (Fuji, Japan) with a resolution of 50 μm and the saved images were analyzed using TINA software (version 2.10 g, Raytest, Isotopenmessgeräte, GmbH, Straubenhardt, Germany).

[2] = In vivo PET/CT imaging, time-activity curves; parameters: species or system Sprague Dawley rats
Description: Rats were anesthetized with isoflurane/oxygen gas and injected intravenously with [^18F]F-DPA (31.4 ± 2.1 MBq, n = 4 SA at the time of injection = 4.1 ± 0.4 GBq/μmol) for scanning by an Inveon multimodality PET/CT tomograph (Siemens Medical Solutions, Knoxville, TN, USA). In order to prevent eye dryness, a few drops of Oftagel (25 mg/g; Santen, Tampere, Finland) were applied to the eyes of the animals. The scanner has a 12.7 cm axial field of view (FOV) and 10 cm transaxial FOV generating images from 159 transaxial slices. The spatial resolution of the scanner is 1.4 mm according to the manufacturer’s specifications. The animals were scanned for 10 min with computed tomography (CT) for attenuation correction and anatomical reference, and immediately after that, the radiotracer was injected for a 60-min dynamic PET scan. Frames were taken at the following intervals: 30 × 10, 15 × 60, 4 × 300, and 2 × 600 s. Volume of interests (VOIs) were drawn over the whole brain, heart, lung, liver, and kidneys using Inveon Research Workplace Image Analysis software (Siemens Medical Solutions). From the VOIs, time–activity curves (TACs) were obtained and the uptake of [^18F]F-DPA was expressed as percentage of injected dose per milliliter of tissue (%inj. dose/ml).

SMILES: CCN(CC)C(=O)Cc1c(-c2ccc([18F])cc2)nn2c(C)cc(C)nc12 [[^18F]F-DPA]
- pKi (CBR): < 6.00
- Uptake of fluorine-18-radioactivity, Harderian gland (Ex vivo biodistribution; 5 min after injection): 0.54 %ID/g tissue
- Uptake of fluorine-18-radioactivity, Harderian gland (Ex vivo biodistribution; 15 min after injection): 0.59 %ID/g tissue
- Uptake of fluorine-18-radioactivity, Harderian gland (Ex vivo biodistribution; 30 min after injection): 0.62 %ID/g tissue
- Uptake of fluorine-18-radioactivity, Harderian gland (Ex vivo biodistribution; 60 min after injection): 0.83 %ID/g tissue
- Uptake of fluorine-18-radioactivity, Harderian gland (Ex vivo biodistribution; 90 min after injection): 0.55 %ID/g tissue
- Accumulation of radioactivity in the bone (defluorination in vivo) (Ex vivo biodistribution; after the initial uptake at 5 min, up to 90 min): no significant accumulation of radioactivity in the bone
- Uptake of fluorine-18-radioactivity, Brain (Ex vivo biodistribution; 5 min after injection): 0.23 %ID/g tissue
- Uptake of fluorine-18-radioactivity, Brain (Ex vivo biodistribution; 15 min after injection): 0.17 %ID/g tissue
- Uptake of fluorine-18-radioactivity, Brain (Ex vivo biodistribution; 30 min after injection): 0.09 %ID/g tissue
- Uptake of fluorine-18-radioactivity, Brain (Ex vivo biodistribution; 60 min after injection): 0.07 %ID/g tissue
- Uptake of fluorine-18-radioactivity, Brain (Ex vivo biodistribution; 90 min after injection): 0.06 %ID/g tissue
- Uptake of fluorine-18-radioactivity, Brown fat (Ex vivo biodistribution; 5 min after injection): 0.28 %ID/g tissue
- Uptake of fluorine-18-radioactivity, Brown fat (Ex vivo biodistribution; 15 min after injection): 0.43 %ID/g tissue
- Uptake of fluorine-18-radioactivity, Brown fat (Ex vivo biodistribution; 30 min after injection): 1.11 %ID/g tissue
- Uptake of fluorine-18-radioactivity, Brown fat (Ex vivo biodistribution; 60 min after injection): 0.44 %ID/g tissue
- Uptake of fluorine-18-radioactivity, Brown fat (Ex vivo biodistribution; 90 min after injection): 0.95 %ID/g tissue
- Blood radioactivity compared with [^18F]DPA-714 (Ex vivo biodistribution; ex vivo %ID/g, two-tailed unpaired t test, P ≤ 0.006): significantly lower
- Uptake of fluorine-18-radioactivity, Eye x2 (Ex vivo biodistribution; eye x2, 5 min after injection): 0.32 %ID/g tissue
- Uptake of fluorine-18-radioactivity, Eye x2 (Ex vivo biodistribution; eye x2, 15 min after injection): 0.29 %ID/g tissue
- Uptake of fluorine-18-radioactivity, Eye x2 (Ex vivo biodistribution; eye x2, 30 min after injection): 0.21 %ID/g tissue
- Uptake of fluorine-18-radioactivity, Eye x2 (Ex vivo biodistribution; eye x2, 60 min after injection): 0.16 %ID/g tissue
- Uptake of fluorine-18-radioactivity, Eye x2 (Ex vivo biodistribution; eye x2, 90 min after injection): 0.16 %ID/g tissue
- Uptake of fluorine-18-radioactivity, Injection site (tail) (Ex vivo biodistribution; 5 min after injection): 0.36 %ID/g tissue
- Uptake of fluorine-18-radioactivity, Injection site (tail) (Ex vivo biodistribution; 15 min after injection): 0.38 %ID/g tissue
- Uptake of fluorine-18-radioactivity, Injection site (tail) (Ex vivo biodistribution; 30 min after injection): 0.28 %ID/g tissue
- Uptake of fluorine-18-radioactivity, Injection site (tail) (Ex vivo biodistribution; 60 min after injection): 0.42 %ID/g tissue
- Uptake of fluorine-18-radioactivity, Injection site (tail) (Ex vivo biodistribution; 90 min after injection): 0.38 %ID/g tissue
- Uptake of fluorine-18-radioactivity, Large int. Wall + contents (Ex vivo biodistribution; 5 min after injection): 0.30 %ID/g tissue
- Uptake of fluorine-18-radioactivity, Large int. Wall + contents (Ex vivo biodistribution; 15 min after injection): 0.31 %ID/g tissue
- Uptake of fluorine-18-radioactivity, Large int. Wall + contents (Ex vivo biodistribution; 30 min after injection): 0.33 %ID/g tissue
- Uptake of fluorine-18-radioactivity, Large int. Wall + contents (Ex vivo biodistribution; 60 min after injection): 0.29 %ID/g tissue
- Uptake of fluorine-18-radioactivity, Large int. Wall + contents (Ex vivo biodistribution; 90 min after injection): 0.28 %ID/g tissue
- Uptake of fluorine-18-radioactivity, Liver (Ex vivo biodistribution; 5 min after injection): 0.77 %ID/g tissue
- Uptake of fluorine-18-radioactivity, Liver (Ex vivo biodistribution; 15 min after injection): 0.82 %ID/g tissue
- Uptake of fluorine-18-radioactivity, Liver (Ex vivo biodistribution; 30 min after injection): 0.49 %ID/g tissue
- Uptake of fluorine-18-radioactivity, Liver (Ex vivo biodistribution; 60 min after injection): 0.43 %ID/g tissue
- Uptake of fluorine-18-radioactivity, Liver (Ex vivo biodistribution; 90 min after injection): 0.31 %ID/g tissue
- Uptake of fluorine-18-radioactivity, Lung (Ex vivo biodistribution; 5 min after injection): 5.94 %ID/g tissue
- Uptake of fluorine-18-radioactivity, Lung (Ex vivo biodistribution; 15 min after injection): 4.04 %ID/g tissue
- Uptake of fluorine-18-radioactivity, Lung (Ex vivo biodistribution; 30 min after injection): 2.27 %ID/g tissue
- Uptake of fluorine-18-radioactivity, Lung (Ex vivo biodistribution; 60 min after injection): 1.79 %ID/g tissue
- Uptake of fluorine-18-radioactivity, Lung (Ex vivo biodistribution; 90 min after injection): 1.47 %ID/g tissue
- Uptake of fluorine-18-radioactivity, Muscle (Ex vivo biodistribution; 5 min after injection): 0.07 %ID/g tissue
- Uptake of fluorine-18-radioactivity, Muscle (Ex vivo biodistribution; 15 min after injection): 0.07 %ID/g tissue
- Uptake of fluorine-18-radioactivity, Muscle (Ex vivo biodistribution; 30 min after injection): 0.09 %ID/g tissue
- Uptake of fluorine-18-radioactivity, Muscle (Ex vivo biodistribution; 60 min after injection): 0.11 %ID/g tissue
- Uptake of fluorine-18-radioactivity, Muscle (Ex vivo biodistribution; 90 min after injection): 0.12 %ID/g tissue
- Uptake of fluorine-18-radioactivity, Salivary x2 (Ex vivo biodistribution; salivary x2, 5 min after injection): 0.70 %ID/g tissue
- Uptake of fluorine-18-radioactivity, Salivary x2 (Ex vivo biodistribution; salivary x2, 15 min after injection): 0.82 %ID/g tissue
- Uptake of fluorine-18-radioactivity, Salivary x2 (Ex vivo biodistribution; salivary x2, 30 min after injection): 1.56 %ID/g tissue
- Uptake of fluorine-18-radioactivity, Salivary x2 (Ex vivo biodistribution; salivary x2, 60 min after injection): 1.21 %ID/g tissue
- Uptake of fluorine-18-radioactivity, Salivary x2 (Ex vivo biodistribution; salivary x2, 90 min after injection): 1.00 %ID/g tissue
- Uptake of fluorine-18-radioactivity, Small int. wall + contents (Ex vivo biodistribution; 5 min after injection): 1.19 %ID/g tissue
- Uptake of fluorine-18-radioactivity, Small int. wall + contents (Ex vivo biodistribution; 15 min after injection): 1.47 %ID/g tissue
- Uptake of fluorine-18-radioactivity, Small int. wall + contents (Ex vivo biodistribution; 30 min after injection): 2.00 %ID/g tissue
- Uptake of fluorine-18-radioactivity, Small int. wall + contents (Ex vivo biodistribution; 60 min after injection): 1.95 %ID/g tissue
- Uptake of fluorine-18-radioactivity, Small int. wall + contents (Ex vivo biodistribution; 90 min after injection): 2.59 %ID/g tissue
- Uptake of fluorine-18-radioactivity, Stomach wall + contents (Ex vivo biodistribution; 5 min after injection): 0.50 %ID/g tissue
- Uptake of fluorine-18-radioactivity, Stomach wall + contents (Ex vivo biodistribution; 15 min after injection): 0.54 %ID/g tissue
- Uptake of fluorine-18-radioactivity, Stomach wall + contents (Ex vivo biodistribution; 30 min after injection): 0.93 %ID/g tissue
- Uptake of fluorine-18-radioactivity, Stomach wall + contents (Ex vivo biodistribution; 60 min after injection): 1.07 %ID/g tissue
- Uptake of fluorine-18-radioactivity, Stomach wall + contents (Ex vivo biodistribution; 90 min after injection): 0.74 %ID/g tissue
- Uptake of fluorine-18-radioactivity, Testis (Ex vivo biodistribution; 5 min after injection): 0.21 %ID/g tissue
- Uptake of fluorine-18-radioactivity, Testis (Ex vivo biodistribution; 15 min after injection): 0.28 %ID/g tissue
- Uptake of fluorine-18-radioactivity, Testis (Ex vivo biodistribution; 30 min after injection): 0.23 %ID/g tissue
- Uptake of fluorine-18-radioactivity, Testis (Ex vivo biodistribution; 60 min after injection): 0.26 %ID/g tissue
- Uptake of fluorine-18-radioactivity, Testis (Ex vivo biodistribution; 90 min after injection): 0.27 %ID/g tissue
- pKi (TSPO): 8.77
- Unchanged radiotracer, share of radioactivity in the brain ([1]; 20–30 min after injection): greater than 95%
- Unchanged radiotracer, share of radioactivity in the brain ([1]; 90 min after injection, n = 3): 93.5 ± 2.8%
- Unchanged radiotracer, share of radioactivity in the plasma ([1]; plasma, 90 min after injection, n = 3): 28.3 ± 6.4%
- Excretion pathway ([2]; in vivo TACs, high F-18 radioactivity in the intestine): excreted via the hepatobiliary pathway
- Time after injection at which concentration equilibrium is reached in the brain ([2]; whole brain TAC, i.v. injection, 60-min dynamic PET): 20 to 30 min
